Measured values from patent publication US11504323B2, “Boundary surface charged contact lens for delivery” (Lynthera Corporation, priority 2020, dated 2022).
Values after ≈ are worked out from the molar mass of the structure shown. Where a name gives a salt, the structure may show the parent alone. Read-outs that look alike come from different tables or passages of the source.

Experiments:
[1] = cited from earlier work
[2] = Release of THCL and KTF from oleic acid loaded lenses in PBS at different pH; settings: release medium pH from 7.4 to 5.5
[3] = cited from earlier work; remark: listed apart in the source

Row | release kinetics of KTF as pH decreases [2] | Structure (SMILES) | solubility in PBS ([1]; pH 7) [µg/mL] | solubility in PBS ([1]; pH 10) [µg/mL] | Solubility in water [3] [µM]
1 | accelerated | CN1CCC(=C2c3ccccc3CC(=O)c3sccc32)CC1 [KTF, ketotifen fumarate] | 10500 | 20 | –
2 | – | CCCCCCCCCCCCCC(=O)O [Myristic acid] | – | – | 1 (≈ 0.228 µg/mL)
